Where two headings read alike, the source gives them in different places.
How the values were obtained:
SK-MEL-28 = assay: NCI60 five-dose screen; type: cell-based; settings: Homo sapiens, SK-MEL-28, melanoma
SK-OV-3 = assay: NCI60 five-dose screen; type: cell-based; settings: Homo sapiens, SK-OV-3, ovarian cancer
SF-295 = assay: NCI60 five-dose screen; type: cell-based; settings: Homo sapiens, SF-295, CNS cancer
UACC-257 = assay: NCI60 five-dose screen; type: cell-based; settings: Homo sapiens, UACC-257, melanoma
SN12C = assay: NCI60 five-dose screen; type: cell-based; settings: Homo sapiens, renal cancer
HL-60 (TB) = assay: NCI60 five-dose screen; type: cell-based; settings: Homo sapiens, leukemia
BT-549 = assay: NCI60 five-dose screen; type: cell-based; settings: Homo sapiens, BT-549, breast cancer
UO-31 = assay: NCI60 five-dose screen; type: cell-based; settings: Homo sapiens, UO-31, renal cancer
MALME-3M = assay: NCI60 five-dose screen; type: cell-based; settings: Homo sapiens, melanoma
PC-3 = assay: NCI60 five-dose screen; type: cell-based; settings: Homo sapiens, PC-3, prostate cancer
NCI-H226 = assay: NCI60 five-dose screen; type: cell-based; settings: Homo sapiens, NCI-H226, NSC lung cancer
A549/ATCC = assay: NCI60 five-dose screen; type: cell-based; settings: Homo sapiens, NSC lung cancer
COLO 205 = assay: NCI60 five-dose screen; type: cell-based, human; settings: for CC50: read-out: LC50 (the source's name)
SF-268 = assay: NCI60 five-dose screen; type: cell-based; settings: Homo sapiens, SF-268, CNS cancer
HOP-92 = assay: NCI60 five-dose screen; type: cell-based; settings: Homo sapiens, HOP-92, NSC lung cancer
HOP-62 = assay: NCI60 five-dose screen; type: cell-based; settings: Homo sapiens, HOP-62, NSC lung cancer
CAKI-1 = assay: NCI60 five-dose screen; type: cell-based; settings: Homo sapiens, CAKI-1, renal cancer
OVCAR-8 = assay: NCI60 five-dose screen; type: cell-based; settings: Homo sapiens, OVCAR-8, ovarian cancer
NCI-H460 = assay: NCI60 five-dose screen; type: cell-based; settings: Homo sapiens, NCI-H460, NSC lung cancer
MDA-MB-435 = assay: NCI60 five-dose screen; type: cell-based, human; settings: Homo sapiens
LOX IMVI = assay: NCI60 five-dose screen; type: cell-based; settings: Homo sapiens, melanoma
A498 = assay: NCI60 five-dose screen; type: cell-based; settings: Homo sapiens, A498, renal cancer
RXF 393 = assay: NCI60 five-dose screen; type: cell-based; settings: Homo sapiens, RXF 393, renal cancer
MDA-MB-468 = assay: NCI60 five-dose screen; type: cell-based; settings: Homo sapiens, MDA-MB-468, breast cancer
[1] = test system: L929 normal mouse fibroblast cell line; assay: Cytotoxicity MTT assay, L929; type: cell-based; settings: IC50 (L929)/IC50 (T47D)
Outline: (§1)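 T47D breast cancer and L929 mouse fibroblasts in DMEM/10% FBS, seeded at 10 000 cells/well and grown overnight. Compounds at designated concentrations for 48 h at 37 °C, then 0.5 mg/mL MTT for 3 h. Formazan dissolved in DMSO, A570 read, viability as % of DMSO vehicle.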

[2] = Cytotoxicity MTT assay, L929; type: cell-based, mouse; settings: mouse, L929 fibroblast cells; MTT, 48 hours
Outline: as §1

CCRF-CEM = assay: NCI60 five-dose screen; type: cell-based; settings: Homo sapiens, leukemia
786-0 = assay: NCI60 five-dose screen; type: cell-based; settings: Homo sapiens, 786-0, renal cancer
HCT-15 = assay: NCI60 five-dose screen; type: cell-based; settings: Homo sapiens, HCT-15, colon cancer
RPMI-8226 = assay: NCI60 five-dose screen; type: cell-based; settings: Homo sapiens, RPMI-8226, leukemia
NCI-H23 = assay: NCI60 five-dose screen; type: cell-based; settings: Homo sapiens, NCI-H23, NSC lung cancer
[3] = read-out: LC50 (the source's name)

Q: For `O=C(N/N=C/c1cc(Br)c[nH]1)c1[nH]c2ccc(Br)cc2c1-c1ccccc1` [Derivative 3e, (E)-5-Bromo-N′-((4-bromo-1H-pyrrol-2-yl)methylene)-3-phenyl-1H-indole-2-carbohydrazide], which GI50 (SK-MEL-28) is on record?
A: 0.612 µM

Q: And the CC50 (SK-MEL-28; [3])?
A: 43.9 µM

Q: What about the GI50 (SK-OV-3) of the same compound?
A: 0.966 µM

Q: And the CC50 (SK-OV-3; [3])?
A: 53.8 µM

Q: What about the GI50 (SF-295) of the same compound?
A: 0.254 µM

Q: And the CC50 (SF-295; [3])?
A: 25.9 µM

Q: And the GI50 (UACC-257)?
A: 1.09 µM

Q: And the CC50 (UACC-257; [3])?
A: 47 µM

Q: What about the GI50 (SN12C) of the same compound?
A: 0.31 µM

Q: And the CC50 (SN12C; [3])?
A: 5.49 µM

Q: What about the GI50 (HL-60 (TB)) of the same compound?
A: 0.327 µM

Q: What about the CC50 (HL-60 (TB); [3]) of the same compound?
A: > 100 µM

Q: And the GI50 (BT-549)?
A: 0.314 µM

Q: And the CC50 (BT-549; [3])?
A: 36.2 µM

Q: What about the GI50 (UO-31) of the same compound?
A: 0.618 µM

Q: And the CC50 (UO-31; [3])?
A: 28.1 µM

Q: What about the GI50 (MALME-3M) of the same compound?
A: 0.665 µM

Q: And the CC50 (MALME-3M; [3])?
A: 32.5 µM

Q: And the GI50 (PC-3)?
A: 0.382 µM

Q: What about the CC50 (PC-3; [3]) of the same compound?
A: 38.1 µM

Q: And the GI50 (NCI-H226)?
A: 0.382 µM

Q: What about the CC50 (NCI-H226; [3]) of the same compound?
A: 29.9 µM

Q: What about the GI50 (A549/ATCC) of the same compound?
A: 0.395 µM

Q: And the CC50 (A549/ATCC; [3])?
A: 56.4 µM

Q: What about the CC50 (COLO 205; COLO 205, colon cancer) of the same compound?
A: 0.884 µM

Q: And the CC50 (COLO 205; Homo sapiens, COLO 205, COLO 205, colon cancer)?
A: 0.89 µM

Q: And the GI50 (COLO 205; Homo sapiens, COLO 205, colon cancer)?
A: 0.192 µM

Q: What about the GI50 (SF-268) of the same compound?
A: 0.529 µM

Q: And the CC50 (SF-268; [3])?
A: 52.9 µM

Q: And the GI50 (HOP-92)?
A: 1.51 µM

Q: And the CC50 (HOP-92; [3])?
A: 26.3 µM

Q: And the GI50 (HOP-62)?
A: 0.546 µM

Q: What about the CC50 (HOP-62; [3]) of the same compound?
A: > 100 µM

Q: And the GI50 (CAKI-1)?
A: 0.329 µM

Q: And the CC50 (CAKI-1; [3])?
A: 29 µM

Q: What about the GI50 (OVCAR-8) of the same compound?
A: 0.304 µM

Q: What about the CC50 (OVCAR-8; [3]) of the same compound?
A: 18.2 µM

Q: What about the GI50 (NCI-H460) of the same compound?
A: 0.353 µM

Q: And the CC50 (NCI-H460; [3])?
A: 43.2 µM

Q: And the CC50 (MDA-MB-435; MDA-MB-435, MDA-MB-435, melanoma, read-out: LC50 (the source's name))?
A: 24.3 µM

Q: What about the GI50 (MDA-MB-435; MDA-MB-435, melanoma) of the same compound?
A: 0.207 µM

Q: And the GI50 (LOX IMVI)?
A: 0.36 µM

Q: What about the CC50 (LOX IMVI; [3]) of the same compound?
A: 6.98 µM

Q: What about the GI50 (A498) of the same compound?
A: 5.47 µM

Q: What about the CC50 (A498; [3]) of the same compound?
A: 44.5 µM

Q: And the GI50 (RXF 393)?
A: 0.497 µM

Q: What about the CC50 (RXF 393; [3]) of the same compound?
A: 37.9 µM

Q: And the GI50 (MDA-MB-468)?
A: 0.231 µM

Q: What about the CC50 (MDA-MB-468; [3]) of the same compound?
A: 13 µM

Q: What about the “Selectivity index (SI)” value [1] of the same compound?
A: 9.29

Q: What about the IC50 at 48 h [2] of the same compound?
A: 22.3 ± 11.9 µM

Q: What about the GI50 (CCRF-CEM) of the same compound?
A: 0.341 µM

Q: And the CC50 (CCRF-CEM; [3])?
A: > 100 µM

Q: What about the GI50 (786-0) of the same compound?
A: 0.727 µM

Q: What about the CC50 (786-0; [3]) of the same compound?
A: 55.9 µM

Q: And the GI50 (HCT-15)?
A: 0.28 µM

Q: And the CC50 (HCT-15; [3])?
A: 13.5 µM

Q: And the GI50 (RPMI-8226)?
A: 0.346 µM

Q: And the CC50 (RPMI-8226; [3])?
A: > 100 µM

Q: And the GI50 (NCI-H23)?
A: 0.298 µM

Q: What about the CC50 (NCI-H23; [3]) of the same compound?
A: 26.9 µM
